Consider eight molecules from publication PMC9713320, “Study of the anticancer effect of new quinazolinone hydrazine derivatives as receptor tyrosine kinase inhibitors” (Frontiers in Chemistry, 2022).

The test system of one experiment is A549. Nature of the experiment: cells. Set-up: MTT antiproliferative assay, absorbance at 570 nm, monolayer cancer cells. Particulars: Homo sapiens, 72 h, MTT, read-out: IC50 (µM) / Mean ± SEM / A549. The source says: (§1) MTT (3-(4,5-dimethylthiazol-2-yl)-2,5-diphenyltetrazolium bromide) assay was applied to evaluate the antiproliferative effects of synthetic compounds against cancer and normal cell lines as previously described ([Damghani et al., 2021]). The MTT assay is based on the reduction function of NAD(P)H-dependent cellular oxidoreductase enzymes on yellow tetrazolium dye MTT to its insoluble formazan, which has a purple color and reflects the number of viable cells. Cancer and non-cancer cells were seeded in 96-well flat bottom plates at different densities of 1.5 × 10^4 (HT-29), 3 × 10^4 (A549 and U-87MG), 4 × 10^4 (EBC-1). Synthetic compounds were first dissolved in DMSO and then diluted in growth medium. After 24 h the attached cells were exposed to 100 µL of 3-4 different concentrations of synthesized derivatives in triplicate manner and incubated for an additional 72 h at 37°C. In addition, 3–4 different concentrations of reference compounds were added to wells. To perform the MTT assay the media was discarded from each well and MTT solution in phosphate-buffered saline at a concentration of 0.5 mg/ml was added to all wells. Then, plates were incubated at 37°C for 4 h to allow formation of formazan crystals. Afterwards, crystals were dissolved in 200 μL DMSO, shake on an orbital shaker for 30 min and absorbance was measured at a wavelength of 570 nm with background correction at 650 nm using a Bio-Tek microplate reader (Model Synergy HTX). Finally, IC50 values for each compound was calculated with CurveExpert software version 1.4 for windows. Each experiment was repeated 3–5 times. EBC-1 (human lung adenocarcinoma cells) were obtained from Japanese Collection of Research Bio Resources Cell Bank (JCRB). A549 (human lung adenocarcinoma cells), HT-29 (Human colorectal adenocarcinoma cells) and U-87MG (human primary glioblastoma cells) were obtained from Iranian Biological Resource Centre, Tehran, Iran. EBC-1 cells were cultured in RPMI 1640 medium containing 10% heat-inactivated fetal bovine serum (FBS) and 1% penicillin/streptomycin. A549, HT-29 and U-87MG cells were grown in DMEM low glucose, containing 10% heat-inactivated FBS and 1% penicillin/streptomycin. All cells were grown in monolayer culture at 37°C in a humidified incubator with 5% CO2. We employed the MTT assay in order to investigate the antiproliferative effects of the synthetic compounds against four different cancer cell lines, including lung cancer cell lines EBC-1 (with MET amplification) and A549, the human colorectal cancer cells HT-29, as well as the human glioblastoma cell line U-87MG.

For the next experiment, the system named is EBC-1. The experiment can be described thus: cells. Set-up: MTT antiproliferative assay, absorbance at 570 nm, monolayer cancer cells. Particulars: Homo sapiens, 72 h, MTT, read-out: IC50 (µM) / Mean ± SEM / EBC-1.
Source text: as §1

Another experiment has as its system HT-29. Nature of the experiment: cells. On the set-up: MTT antiproliferative assay, absorbance at 570 nm, monolayer cancer cells. Particulars: Homo sapiens, 72 h, MTT, read-out: IC50 (µM) / Mean ± SEM / HT29.
Source text: as §1

The next experiment concerns U-87MG. Nature of the experiment: cells. Set-up: MTT antiproliferative assay, absorbance at 570 nm, monolayer cancer cells. The following applies: Homo sapiens, 72 h, MTT, read-out: IC50 (µM) / Mean ± SEM / U-87MG.
Source text: as §1

In the next experiment the target is AXL (Homo sapiens, UniProt P30530). Nature of the experiment: radiometric kinase panel, % inhibition at […]. The experiment is classed as biochemical.
Another experiment deals with FLT4 (VEGFR3) (Homo sapiens, UniProt P35916). Nature of the experiment: radiometric kinase assay (Eurofins), concentration-effect curve. Format: biochemical.
Another experiment has as its target FLT1 (VEGFR1) (Homo sapiens, UniProt P17948). Nature of the experiment: radiometric kinase panel, % inhibition at […]. The experiment is classed as biochemical.
In the next experiment the target is FGFR1 (Homo sapiens, UniProt P11362). Nature of the experiment: radiometric kinase panel, % inhibition at […]. Format: biochemical.
A further experiment addresses MET kinase (Homo sapiens, UniProt P08581). Nature of the experiment: HTRF kinase assay; confirmed by radiometric assay. The experiment is classed as biochemical.
The next experiment deals with ALK (Homo sapiens, UniProt Q9UM73). Nature of the experiment: radiometric kinase panel, % inhibition at […]. Format: biochemical.
The target in the next experiment is 1) ABL1(h) (Homo sapiens, UniProt P00519). Nature of the experiment: biochemical. On the set-up: Radiometric kinase activity assay, percent inhibition, Eurofins Cerep. Particulars: read-out: Kinase inhibition (%) ^a / 10 µM. The method, then: (§2) Kinase inhibition profile was examined by Kinase Radiometric Assays for 18 different oncogenic kinases (Eurofins Cerep, Celle l'Evescault, France). In order to investigate the activity of compound CM9, as the most promising agent in this series, against other oncogenic kinases, we further assessed this derivative against a panel of 18 other protein kinases using a radiometric assay at the concentrations of 10 and/or 25 μM (Table 4).

The target in the next experiment is 10) KDR (VEGFR2) (h) (Homo sapiens, UniProt P35968). The experiment can be described thus: biochemical. On the set-up: Radiometric kinase activity assay, percent inhibition, Eurofins Cerep. The following applies: read-out: Kinase inhibition (%) ^a / 10 µM. On the procedure: as §2
Another experiment addresses 11) MAPK3 (ERK1) (h) (Homo sapiens, UniProt P27361). The experiment can be described thus: biochemical. On the set-up: Radiometric kinase activity assay, percent inhibition, Eurofins Cerep. The following applies: read-out: Kinase inhibition (%) ^a / 10 µM. The method, then: as §2
The target in another experiment is 13) MET(h) (Homo sapiens, UniProt P08581). The experiment can be described thus: biochemical. Set-up: Radiometric kinase activity assay, percent inhibition, Eurofins Cerep. The method, then: as §2
13) MET(h), sequence (P08581 whole entry): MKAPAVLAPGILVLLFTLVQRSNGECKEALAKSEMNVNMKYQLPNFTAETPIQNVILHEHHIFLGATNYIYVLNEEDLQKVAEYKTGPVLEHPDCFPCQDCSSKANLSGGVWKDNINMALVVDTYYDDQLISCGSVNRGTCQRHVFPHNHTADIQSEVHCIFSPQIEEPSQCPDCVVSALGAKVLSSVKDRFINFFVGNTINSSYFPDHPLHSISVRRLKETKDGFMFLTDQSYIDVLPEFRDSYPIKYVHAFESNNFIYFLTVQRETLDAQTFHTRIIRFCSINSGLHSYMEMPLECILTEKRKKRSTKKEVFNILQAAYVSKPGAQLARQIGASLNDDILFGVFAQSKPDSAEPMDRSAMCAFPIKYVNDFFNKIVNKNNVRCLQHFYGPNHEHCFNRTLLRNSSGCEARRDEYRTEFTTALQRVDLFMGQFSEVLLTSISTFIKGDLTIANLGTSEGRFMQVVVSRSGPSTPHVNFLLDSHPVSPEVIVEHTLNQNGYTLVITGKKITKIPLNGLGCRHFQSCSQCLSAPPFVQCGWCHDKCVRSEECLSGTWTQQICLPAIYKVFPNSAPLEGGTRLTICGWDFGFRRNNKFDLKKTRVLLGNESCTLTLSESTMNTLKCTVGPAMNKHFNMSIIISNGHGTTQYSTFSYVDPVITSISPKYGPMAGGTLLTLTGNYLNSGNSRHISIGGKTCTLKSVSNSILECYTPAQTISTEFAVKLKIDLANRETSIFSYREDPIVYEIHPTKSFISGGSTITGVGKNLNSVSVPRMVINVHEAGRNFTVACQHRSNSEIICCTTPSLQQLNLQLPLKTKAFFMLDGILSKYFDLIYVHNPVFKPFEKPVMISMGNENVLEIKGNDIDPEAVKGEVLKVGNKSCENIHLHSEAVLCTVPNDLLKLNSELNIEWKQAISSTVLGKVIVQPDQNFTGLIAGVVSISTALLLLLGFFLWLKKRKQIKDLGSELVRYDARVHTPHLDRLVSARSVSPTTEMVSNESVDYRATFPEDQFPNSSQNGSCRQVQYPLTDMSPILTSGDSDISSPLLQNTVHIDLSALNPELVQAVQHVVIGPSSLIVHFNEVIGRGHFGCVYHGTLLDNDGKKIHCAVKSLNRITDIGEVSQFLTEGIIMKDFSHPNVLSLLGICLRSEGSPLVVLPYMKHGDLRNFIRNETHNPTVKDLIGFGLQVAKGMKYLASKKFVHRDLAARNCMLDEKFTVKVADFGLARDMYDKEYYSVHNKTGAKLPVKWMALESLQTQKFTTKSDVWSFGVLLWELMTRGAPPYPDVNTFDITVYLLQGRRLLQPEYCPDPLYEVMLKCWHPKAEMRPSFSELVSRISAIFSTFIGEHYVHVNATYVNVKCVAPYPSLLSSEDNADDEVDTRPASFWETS
For a further experiment, the target named is 14) PDGFRA (PDGFRα) (h) (Homo sapiens, UniProt P16234). Nature of the experiment: biochemical. Set-up: Radiometric kinase activity assay, percent inhibition, Eurofins Cerep. The following applies: read-out: Kinase inhibition (%) ^a / 10 µM / −4. The method, then: as §2
The next experiment addresses 15) PDGFRB (PDGFRβ) (h) (Homo sapiens, UniProt P09619). Nature of the experiment: biochemical. On the set-up: Radiometric kinase activity assay, percent inhibition, Eurofins Cerep. The method, then: as §2
A further experiment concerns the target 16) RET(h) (Homo sapiens, UniProt P07949). Nature of the experiment: biochemical. The following applies: read-out: Kinase inhibition (%) ^a / 10 µM / −4. Set-up: Radiometric kinase activity assay, percent inhibition, Eurofins Cerep. On the procedure: as §2
A further experiment concerns the target 17) MST1R (RON) (h) (Homo sapiens, UniProt Q04912). Nature of the experiment: biochemical. Set-up: Radiometric kinase activity assay, percent inhibition, Eurofins Cerep. Particulars: read-out: Kinase inhibition (%) ^a / 10 µM / −4. The method, then: as §2
Another experiment has as its target 18) ROS1 (Homo sapiens, UniProt P08922). Nature of the experiment: biochemical. The following applies: read-out: Kinase inhibition (%) ^a / 10 µM / −4. Set-up: Radiometric kinase activity assay, percent inhibition, Eurofins Cerep. The method, then: as §2
Another experiment has as its target 19) NTRK1 (TRKA) (h) (Homo sapiens, UniProt P04629). The experiment can be described thus: biochemical. On the set-up: Radiometric kinase activity assay, percent inhibition, Eurofins Cerep. Particulars: read-out: Kinase inhibition (%) ^a / 10 µM / −4. On the procedure:
as §2

The target of a further experiment is 2) ALK(h) (Homo sapiens, UniProt Q9UM73). Nature of the experiment: biochemical. On the set-up: Radiometric kinase activity assay, percent inhibition, Eurofins Cerep. The following applies: read-out: Kinase inhibition (%) ^a / 10 µM. On the procedure: as §2
Another experiment deals with 3) AXL(h) (Homo sapiens, UniProt P30530). Nature of the experiment: biochemical. On the set-up: Radiometric kinase activity assay, percent inhibition, Eurofins Cerep. The following applies: read-out: Kinase inhibition (%) ^a / 10 µM. The method, then:
as §2

For the next experiment, the target named is 4) KIT (c-Kit) (h) (Homo sapiens, UniProt P10721). The experiment can be described thus: biochemical. Set-up: Radiometric kinase activity assay, percent inhibition, Eurofins Cerep. The following applies: read-out: Kinase inhibition (%) ^a / 10 µM. The method, then:
as §2

The target of the next experiment is 5) EGFR(h) (Homo sapiens, UniProt P00533). The experiment can be described thus: biochemical. Set-up: Radiometric kinase activity assay, percent inhibition, Eurofins Cerep. Particulars: read-out: Kinase inhibition (%) ^a / 10 µM. On the procedure: as §2
The next experiment deals with 6) FGFR1(h) (Homo sapiens, UniProt P11362). Nature of the experiment: biochemical. The following applies: read-out: Kinase inhibition (%) ^a / 10 µM. On the set-up: Radiometric kinase activity assay, percent inhibition, Eurofins Cerep. On the procedure:
as §2

A further experiment addresses 7) FLT1 (VEGFR1) (h) (Homo sapiens, UniProt P17948). The experiment can be described thus: biochemical. On the set-up: Radiometric kinase activity assay, percent inhibition, Eurofins Cerep. Particulars: read-out: Kinase inhibition (%) ^a / 10 µM. On the procedure: as §2
The target of another experiment is 8) FLT3 (h) (Homo sapiens, UniProt P36888). The experiment can be described thus: biochemical. On the set-up: Radiometric kinase activity assay, percent inhibition, Eurofins Cerep. On the procedure:
as §2

The next experiment has as its target 9) FLT4 (VEGFR3) (Homo sapiens, UniProt P35916). The experiment can be described thus: biochemical. Set-up: Radiometric kinase activity assay, percent inhibition, Eurofins Cerep. The following applies: read-out: Kinase inhibition (%) ^a / 10 µM. On the procedure:
as §2

The next experiment addresses MAPK1(m) (ERK2) (Mus musculus, UniProt P63085). Nature of the experiment: biochemical. Set-up: Radiometric kinase activity assay, percent inhibition, Eurofins Cerep. Particulars: read-out: Kinase inhibition (%) ^a / 10 µM / −4. On the procedure:
as §2

The mark [1] stands for this setting: read-out: Kinase inhibition (%) ^a / 10 µM / −4.
Setting [2] is: read-out: Kinase inhibition (%) ^a / 25 µM.

8) FLT3 (h), sequence (P36888 whole entry): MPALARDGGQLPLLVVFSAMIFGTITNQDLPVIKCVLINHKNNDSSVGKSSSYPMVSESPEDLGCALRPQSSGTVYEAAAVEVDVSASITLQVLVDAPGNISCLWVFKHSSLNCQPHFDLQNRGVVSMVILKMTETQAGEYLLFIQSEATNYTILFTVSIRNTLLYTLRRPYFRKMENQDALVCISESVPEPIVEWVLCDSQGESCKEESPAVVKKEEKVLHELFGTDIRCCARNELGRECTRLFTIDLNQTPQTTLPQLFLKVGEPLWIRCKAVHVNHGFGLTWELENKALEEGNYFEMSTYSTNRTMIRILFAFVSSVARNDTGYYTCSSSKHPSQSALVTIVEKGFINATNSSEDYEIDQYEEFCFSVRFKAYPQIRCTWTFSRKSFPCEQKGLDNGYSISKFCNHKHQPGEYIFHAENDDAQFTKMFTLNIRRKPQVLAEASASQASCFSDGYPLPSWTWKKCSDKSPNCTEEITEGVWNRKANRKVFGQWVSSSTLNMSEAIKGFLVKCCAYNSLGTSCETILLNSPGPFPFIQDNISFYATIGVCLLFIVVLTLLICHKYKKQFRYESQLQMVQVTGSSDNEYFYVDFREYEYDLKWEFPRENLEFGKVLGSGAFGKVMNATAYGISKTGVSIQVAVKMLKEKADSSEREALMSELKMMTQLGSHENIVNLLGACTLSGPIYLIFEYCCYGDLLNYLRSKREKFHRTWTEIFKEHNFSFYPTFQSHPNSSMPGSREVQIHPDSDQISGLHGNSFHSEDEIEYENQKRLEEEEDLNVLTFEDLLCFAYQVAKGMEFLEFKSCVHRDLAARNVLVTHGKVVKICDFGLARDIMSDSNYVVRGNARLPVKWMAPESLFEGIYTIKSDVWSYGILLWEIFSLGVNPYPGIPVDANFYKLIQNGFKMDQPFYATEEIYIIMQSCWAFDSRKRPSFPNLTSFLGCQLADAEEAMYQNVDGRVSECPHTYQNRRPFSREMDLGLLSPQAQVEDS
15) PDGFRB (PDGFRβ) (h), sequence (P09619 whole entry): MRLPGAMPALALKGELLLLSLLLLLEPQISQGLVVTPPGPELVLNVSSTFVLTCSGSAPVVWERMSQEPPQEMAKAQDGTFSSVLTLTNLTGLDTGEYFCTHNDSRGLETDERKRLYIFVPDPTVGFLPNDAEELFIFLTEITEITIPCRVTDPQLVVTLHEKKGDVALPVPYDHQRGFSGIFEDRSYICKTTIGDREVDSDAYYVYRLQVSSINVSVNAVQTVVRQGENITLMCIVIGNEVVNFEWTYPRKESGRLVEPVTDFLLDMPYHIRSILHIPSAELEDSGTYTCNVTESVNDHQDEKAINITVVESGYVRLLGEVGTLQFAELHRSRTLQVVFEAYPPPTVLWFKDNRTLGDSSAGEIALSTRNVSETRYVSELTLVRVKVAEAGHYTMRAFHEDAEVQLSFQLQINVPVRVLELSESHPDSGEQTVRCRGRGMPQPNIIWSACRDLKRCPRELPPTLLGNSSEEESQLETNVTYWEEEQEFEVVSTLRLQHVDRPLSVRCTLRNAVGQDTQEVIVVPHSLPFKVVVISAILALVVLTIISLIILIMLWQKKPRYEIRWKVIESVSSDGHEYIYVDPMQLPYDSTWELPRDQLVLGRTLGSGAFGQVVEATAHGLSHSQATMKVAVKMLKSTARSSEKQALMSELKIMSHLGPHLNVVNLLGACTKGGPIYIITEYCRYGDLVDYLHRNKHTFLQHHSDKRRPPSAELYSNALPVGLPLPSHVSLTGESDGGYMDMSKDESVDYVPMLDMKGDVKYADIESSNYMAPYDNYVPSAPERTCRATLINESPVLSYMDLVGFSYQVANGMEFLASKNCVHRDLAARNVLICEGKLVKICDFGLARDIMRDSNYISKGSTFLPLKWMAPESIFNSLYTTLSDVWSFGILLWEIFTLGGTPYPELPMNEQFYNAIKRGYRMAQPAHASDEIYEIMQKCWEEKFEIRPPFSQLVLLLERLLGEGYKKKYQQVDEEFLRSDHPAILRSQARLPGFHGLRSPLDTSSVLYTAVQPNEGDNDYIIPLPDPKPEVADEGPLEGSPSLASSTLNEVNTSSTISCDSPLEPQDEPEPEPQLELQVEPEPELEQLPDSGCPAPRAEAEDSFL
16) RET(h), sequence (P07949 whole entry): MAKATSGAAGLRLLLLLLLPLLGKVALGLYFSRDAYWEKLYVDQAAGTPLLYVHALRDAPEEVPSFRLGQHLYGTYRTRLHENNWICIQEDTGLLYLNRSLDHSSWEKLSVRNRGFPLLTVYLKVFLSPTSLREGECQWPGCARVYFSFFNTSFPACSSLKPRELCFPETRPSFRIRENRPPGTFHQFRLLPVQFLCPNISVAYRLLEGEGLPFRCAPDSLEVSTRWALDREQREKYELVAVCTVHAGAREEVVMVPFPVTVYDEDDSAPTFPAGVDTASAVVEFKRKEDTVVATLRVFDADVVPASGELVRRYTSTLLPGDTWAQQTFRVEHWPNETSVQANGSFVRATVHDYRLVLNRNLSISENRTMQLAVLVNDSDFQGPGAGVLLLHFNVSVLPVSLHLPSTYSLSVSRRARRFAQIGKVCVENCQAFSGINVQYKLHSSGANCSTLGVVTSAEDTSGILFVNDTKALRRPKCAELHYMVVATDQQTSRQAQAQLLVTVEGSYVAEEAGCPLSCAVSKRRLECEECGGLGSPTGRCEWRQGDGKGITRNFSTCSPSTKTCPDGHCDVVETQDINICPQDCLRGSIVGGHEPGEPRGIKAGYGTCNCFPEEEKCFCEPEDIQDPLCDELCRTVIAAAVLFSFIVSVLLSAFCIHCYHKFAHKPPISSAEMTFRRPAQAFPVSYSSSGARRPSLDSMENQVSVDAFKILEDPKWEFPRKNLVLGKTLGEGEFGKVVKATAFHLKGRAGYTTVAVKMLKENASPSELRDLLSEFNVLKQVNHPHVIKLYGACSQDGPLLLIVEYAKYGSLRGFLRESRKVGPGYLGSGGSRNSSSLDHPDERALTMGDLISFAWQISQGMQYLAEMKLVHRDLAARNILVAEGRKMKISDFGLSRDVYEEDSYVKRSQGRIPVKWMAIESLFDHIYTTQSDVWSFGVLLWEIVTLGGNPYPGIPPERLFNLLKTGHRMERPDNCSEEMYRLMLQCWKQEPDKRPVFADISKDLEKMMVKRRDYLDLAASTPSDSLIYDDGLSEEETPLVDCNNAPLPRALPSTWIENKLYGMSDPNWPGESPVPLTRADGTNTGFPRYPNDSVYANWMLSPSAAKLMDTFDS
MAPK1(m) (ERK2), sequence (P63085 whole entry): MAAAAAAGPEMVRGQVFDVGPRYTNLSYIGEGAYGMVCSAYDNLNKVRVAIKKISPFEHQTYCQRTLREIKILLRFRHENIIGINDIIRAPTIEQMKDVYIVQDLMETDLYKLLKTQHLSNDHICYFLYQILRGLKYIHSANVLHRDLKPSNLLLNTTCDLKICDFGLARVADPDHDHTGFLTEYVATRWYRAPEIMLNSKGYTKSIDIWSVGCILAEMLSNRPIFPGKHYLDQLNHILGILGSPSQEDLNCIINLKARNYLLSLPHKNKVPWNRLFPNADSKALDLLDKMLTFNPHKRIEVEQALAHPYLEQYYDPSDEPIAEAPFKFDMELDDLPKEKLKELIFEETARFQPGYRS

As to `Cn1c(N/N=C/c2ccc(OCc3cn(Cc4ccc([N+](=O)[O-])cc4)nn3)cc2)nc2ccccc2c1=O` [CM1], the IC50 in the experiment on A549, in the experiment on EBC-1, with HT-29 and in the experiment with U-87MG was over 100 µM in each case.
With `Cc1ccc(Cn2cc(COc3ccc(/C=N/Nc4nc5ccccc5c(=O)n4C)cc3)nn2)cc1` [CM2], the IC50 with A549, with EBC-1, in the experiment with HT-29 and with U-87MG was over 100 µM throughout.
For the molecule `Cn1c(N/N=C/c2ccc(OCc3cn(Cc4ccc(C(C)(C)C)cc4)nn3)cc2)nc2ccccc2c1=O` [CM3], the IC50 is over 100 µM with A549, over 100 µM in the experiment on EBC-1, 56.4 ± 14.5 µM in the experiment with HT-29 and over 100 µM with U-87MG.
As for `Cn1c(N/N=C/c2ccc(OCc3cn(Cc4ccc(F)cc4)nn3)cc2)nc2ccccc2c1=O` [CM4], the IC50 in the experiment with A549 is over 100 µM; in the experiment on EBC-1, 36.2 ± 10.8 µM; with HT-29 it was 27.8 ± 5.1 µM; in the experiment with U-87MG, 67.1 ± 6.2 µM.
The corresponding values for `Cn1c(N/N=C/c2ccc(OCc3cn(Cc4ccc(Cl)cc4)nn3)cc2)nc2ccccc2c1=O` [CM5] are over 100 µM, over 100 µM, over 100 µM and over 100 µM.
The corresponding values for `Cn1c(N/N=C/c2ccc(OCc3cn(Cc4ccccc4)nn3)cc2)nc2ccccc2c1=O` [CM6] are over 100 µM, 32.5 ± 6.8 µM, over 100 µM and over 100 µM.
For `Cn1c(N/N=C/c2ccc(OCc3cn(Cc4ccc(Cl)c(Cl)c4)nn3)cc2)nc2ccccc2c1=O` [CM8] the same measures were 34.5 ± 2.2 µM, 22.4 ± 6 µM, 47.8 ± 6.7 µM and 51.1 ± 7.6 µM.
For the molecule `Cn1c(N/N=C/c2ccc(OCc3cn(Cc4ccc(Br)cc4)nn3)cc2)nc2ccccc2c1=O` [CM9, (E)-2-(2-(4-((1-(4-bromobenzyl)-1H-1,2,3-triazol-4-yl)methoxy)benzylidene)hydrazinyl)-3-methylquinazolin-4(3H)-one], the inhibition at 25 µM at AXL is 65%; against FLT1 (VEGFR1), 82%; against FGFR1, 66%; on ALK, 51%; on 13) MET(h) (setting [2]), 58%; on 15) PDGFRB (PDGFRβ) (h) (setting [2]), 10%. In addition, the inhibition at 25 µM on 8) FLT3 (h) (setting [2]) came to 47%. The IC50 at FLT4 (VEGFR3) amounted to 5.01 µM; against MET kinase it was 22.8 ± 3.9 µM; in the experiment with A549, 64.9 ± 2.9 µM; with EBC-1, 8.6 ± 1.9 µM; in the experiment with HT-29, 65.2 ± 15.4 µM; with U-87MG, 24.6 ± 2.6 µM. Besides, the inhibition at 10 µM was 14% at 1) ABL1(h); 0% at 10) KDR (VEGFR2) (h); -4% on 11) MAPK3 (ERK1) (h); 27% on 13) MET(h) (setting [1]); 5% on 14) PDGFRA (PDGFRα) (h); 23% on 15) PDGFRB (PDGFRβ) (h) (setting [1]). The inhibition at 10 µM is -12% at 16) RET(h); 5% on 17) MST1R (RON) (h); -25% at 18) ROS1; 4% on 19) NTRK1 (TRKA) (h); 25% at 2) ALK(h); 28% at 3) AXL(h). For the same molecule, the inhibition at 10 µM is 0% on 4) KIT (c-Kit) (h); -2% on 5) EGFR(h); 39% at 6) FGFR1(h); 22% at 7) FLT1 (VEGFR1) (h); 24% at 8) FLT3 (h) (read-out: Kinase inhibition (%) ^a / 10 µM); 86% at 9) FLT4 (VEGFR3). In addition, on MAPK1(m) (ERK2), the inhibition at 10 µM came out at 3%.
